Test [1] deals with T1, Aurora A (Homo sapiens, UniProt O14965).
T1 construct: histidine tag (N); made in house; host or cells: Escherichia coli BL21-CodonPlus(DE3)-RIL
T1 sequence (O14965 1-403): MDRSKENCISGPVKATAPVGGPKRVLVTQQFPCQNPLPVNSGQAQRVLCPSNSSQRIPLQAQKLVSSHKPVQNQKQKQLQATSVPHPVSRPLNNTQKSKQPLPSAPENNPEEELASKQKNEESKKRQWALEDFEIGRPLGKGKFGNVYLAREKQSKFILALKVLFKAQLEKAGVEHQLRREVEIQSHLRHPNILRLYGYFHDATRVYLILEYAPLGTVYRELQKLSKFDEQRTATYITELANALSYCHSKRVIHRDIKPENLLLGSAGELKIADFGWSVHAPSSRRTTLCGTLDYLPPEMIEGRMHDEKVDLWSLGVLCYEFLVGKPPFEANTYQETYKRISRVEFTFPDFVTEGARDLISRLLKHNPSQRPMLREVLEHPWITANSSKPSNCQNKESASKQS
Kind of test: Aurora A inhibitory action (33P-ATP kinase assay, Kemptide substrate). It counts as biochemical. Conditions: 20 μM ATP, 30° C., 20 minutes. From the text: Aurora A Inhibitory Action
(1) Purification of Aurora A
cDNA of Aurora A having histidine tag fused at the amino terminal was integrated into an expression vector, which was then highly expressed in Escherichia coli BL2 1-CodonPlus(DE3)-RIL cells. The Escherichia coli cells were recovered and solubilized, and then the histidine-tagged Aurora A protein was adsorbed onto a nickel chelate column and eluted from the column with imidazole. The active fraction was desalted with a desalting column to give a pure enzyme.
(2) Measurement of Activity of Aurora A
For measurement of the activity of Aurora A, the substrate used was Kemptide (Lys-Arg-Arg-Ala-Ser-Lys-Gly) (SEQ.ID.NO.: 1), a synthetic peptide purchased from Sigma-Aldrich, Inc. [Certificate of analysis (Upstate, Inc.)].
Reaction was conducted by a partial modification of a method by Upstate, Inc. [Kinase Profiler™ Assay Protocols]. The amount of the reaction liquid was 21.1 μL, and the composition of the reaction buffer (R2 buffer) was 50 mM Tris-hydrochloride buffer (pH 7.4)/15 mM magnesium acetate/0.2 mM ethylenediamine-N,N,N′,N′-tetraacetate (EDTA). To this, purified Aurora A, 100 μM of a substrate peptide, 20 μM of unlabeled adenosine triphosphate (ATP) and 0.5 μCi of [γ-^33P] labeled ATP (2,500 Ci/mmole or more) were added, and the mixture was reacted at 30° C. for 20 minutes. Then, 10 μL of 350 mM phosphate buffer was added to the reaction system to stop the reaction. The substrate peptide was adsorbed on a P81 paper filter 96-well plate and then washed with 130 mM phosphate buffer for several times. The radiation activity of the peptide was measured with a liquid scintillation counter. The [γ-^33P] labeled ATP was purchased from Amersham Biosciences Co., Ltd.
(§1) The compound to be tested was added to the reaction system such that a dilution series of the compound in dimethylsulfoxide was first prepared, and 1.1 μL of this solution was added. A control was provided by adding 1.1 μL of DMSO to the reaction system.

Test [2] addresses T2, Aurora B (Homo sapiens, UniProt Q96GD4).
T2 construct: histidine tag (N); made in house; host or cells: Escherichia coli BL21-CodonPlus(DE3)-RIL
Put plainly: Aurora B inhibitory action (33P-ATP kinase assay, Kemptide substrate). It counts as biochemical. The conditions noted are these: 100 μM ATP, 30° C., 20 minutes.
Description: Aurora B Inhibitory Action
(1) Purification of Aurora B
cDNA of Aurora B having histidine tag fused at the amino terminal was integrated into an expression vector, which was then highly expressed in Escherichia coli BL21-CodonPlus(DE3)-RIL cells. The Escherichia coli cells were recovered and solubilized, and then the histidine-tagged […] protein was adsorbed onto a nickel chelate column and eluted from the column with imidazole. The active fraction was desalted with a desalting column to give a pure enzyme.
(2) Measurement of Activity of Aurora B
For measurement of the activity of Aurora B, the substrate used was Kemptide (Lys-Arg-Arg-Ala-Ser-Lys-Gly) (SEQ.ED.NO.: 1), a synthetic peptide purchased from Sigma-Aldrich, Inc. [Certificate of analysis (Upstate, Inc.)].
Reaction was conducted by a partial modification of the method of activity measurement for Aurora A. The amount of the reaction liquid was 21.1 μL, and the composition of the reaction buffer (R2 buffer) was 50 mM Tris-hydrochloride buffer (pH 7.4)/15 mM magnesium acetate/0.2 mM ethylenediamine-N,N,N′,N′-tetraacetate (EDTA). To this, purified Aurora B, 100 μM of a substrate peptide, 100 μM of unlabeled adenosine triphosphate (ATP) and 1 μCi of [γ-^33P] labeled ATP (2,500 Ci/mmole or more) were added, and the mixture was reacted at 30° C. for 20 minutes. Then, 10 μL of 350 mM phosphate buffer was added to the reaction system to stop the reaction. The substrate peptide was adsorbed on a P81 paper filter 96-well plate and then washed with 130 mM phosphate buffer for several times. The radiation activity of the peptide was measured with a liquid scintillation counter. The [γ-^33P] labeled ATP was purchased from Amersham Biosciences Co., Ltd.
as §1

The values that follow come from patent US20080027042A1, “Novel Aminopyridine Derivatives Having Aurora a Selective Inhibitory Action” (priority 2004, published 2008).

SMILES strings stand for the structures. Where a name gives a salt, the structure may show the parent alone.

T2 sequence (Q96GD4 whole entry): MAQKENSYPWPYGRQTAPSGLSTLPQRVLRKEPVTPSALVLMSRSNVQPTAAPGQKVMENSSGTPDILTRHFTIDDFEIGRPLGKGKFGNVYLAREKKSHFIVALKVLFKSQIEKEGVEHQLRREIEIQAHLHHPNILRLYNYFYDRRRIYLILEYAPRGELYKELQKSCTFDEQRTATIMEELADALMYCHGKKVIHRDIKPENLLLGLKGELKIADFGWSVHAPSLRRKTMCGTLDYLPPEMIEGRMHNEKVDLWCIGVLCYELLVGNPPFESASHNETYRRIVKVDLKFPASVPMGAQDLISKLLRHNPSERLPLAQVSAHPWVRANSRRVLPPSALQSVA

As usually defined, the IC50 is the concentration at which inhibition is half-maximal. Regarding `O=C(c1ccoc1)N1CCN(Cc2cccc(Nc3ncc(Cl)s3)n2)CC1` [Example 61, 6-((4-(3-furoyl)piperazin-1-yl)methyl)-N-(5-chlorothiazol-2-yl)pyridin-2-amine], the results for the IC50 in test [1] and in test [2] were 17 nM and 530 nM, respectively.

As to `O=C(c1cccc(F)c1F)N1CCN(Cc2cc(N3CCOCC3)cc(Nc3nccs3)n2)CC1` [Example 103, 6-((4-(2,3-difluorobenzoyl)piperazin-1-yl)methyl)-4-morpholin-4-yl-N-thiazol-2-ylpyridin-2-amine], the IC50 in test [1] was found to be 0.76 nM; in test [2], 250 nM.

As for `O=C(c1cccc(Cl)c1F)N1CCN(Cc2cc(Br)cc(Nc3nccs3)n2)CC1` [Example 81, 4-bromo-6-((4-(3-chloro-2-fluorobenzoyl)piperazin-1-yl)methyl)-N-thiazol-2-ylpyridin-2-amine], the IC50 stood at 0.33 nM in test [1] and 300 nM in test [2].

`O=C(c1cccc(Cl)c1F)N1C[C@@H]2C[C@H]1CN2Cc1cccc(Nc2nccs2)n1` [Example 10, 6-(((1S,4S)-5-(3-chloro-2-fluorobenzoyl)-2,5-diazabicyclo[2.2.1]hept-2-yl)methyl)-N-thiazol-2-ylpyridin-2-amine trifluoroacetate]: the IC50 in test [1] amounted to 0.49 nM; in test [2] it was 92 nM.

For `O=C(c1cccc(Cl)c1F)N1C[C@H]2C[C@@H]1CN2Cc1cccc(Nc2nccs2)n1` [Example 11, 6-(((1R,4R)-5-(3-chloro-2-fluorobenzoyl)-2,5-diazabicyclo[2.2.1]hept-2-yl)methyl)-N-thiazol-2-ylpyridin-2-amine], the IC50 in test [1] is 1.3 nM; in test [2] it was 570 nM.

`CN(C)Cc1cc(CN2CCN(C(=O)c3cccc(Cl)c3F)CC2)nc(Nc2nccs2)c1` [Example 94, 6-((4-(3-chloro-2-fluorobenzoyl)piperazin-1-yl)methyl)-4-((dimethylamino)methyl)-N-thiazol-2-ylpyridin-2-amine]: the IC50 was determined as 1.1 nM in test [1] and 1100 nM in test [2].

For `Cc1cc(Nc2cccc(CN3C[C@@H]4C[C@H]3CN4C(=O)c3cccc(Cl)c3F)n2)n[nH]1` [Example 27, 6-(((1S,4S)-5-(3-chloro-2-fluorobenzoyl)-2,5-diazabicyclo[2.2.1]hept-2-yl)methyl)-N-(5-methyl-1H-pyrazol-3-yl)pyridin-2-amine], the IC50 in test [1] was determined as 3.3 nM; in test [2], 1700 nM.

Turning to `O=C(c1cccc(Cl)c1F)N1CCN(Cc2cc(-c3nn[nH]n3)cc(Nc3nccs3)n2)CC1` [Example 105, 6-((4-(3-chloro-2-fluorobenzoyl)piperazin-1-yl)methyl)-4-(2H-tetrazol-5-yl)-N-thiazol-2-ylpyridin-2-amine], the figures for the IC50 in test [1] and in test [2] were 1.4 nM and 1000 nM, respectively.

Regarding `O=C(c1cccc(Cl)c1Cl)N1CCN(Cc2cccc(Nc3ncc(Cl)s3)n2)CC1` [Example 76, 6-((4-(2,3-dichlorobenzoyl)piperazin-1-yl)methyl)-N-(5-chlorothiazol-2-yl)pyridin-2-amine], the IC50 worked out at 0.44 nM in test [1] and 47 nM in test [2].

Consider `O=C(c1ccccc1)N1CCCN(Cc2cccc(Nc3ncns3)n2)CC1` [Example 35, 6-((4-benzoyl-1,4-diazepan-1-yl)methyl)-N-1,2,4-thiadiazol-5-ylpyridin-2-amine], for which the IC50 in test [1] came out at 31 nM; in test [2], 3400 nM.

As for `Cn1ccc(C(=O)N2CCN(Cc3cccc(Nc4ncc(Cl)s4)n3)CC2)n1` [Example 69, 6-((4-((1-methyl-1H-pyrazol-3-yl)carbonyl)piperazin-1-yl)methyl)-N-(5-chlorothiazol-2-yl)pyridin-2-amine], the IC50 in test [1] is 32 nM; in test [2], 920 nM.

For the compound `COC(=O)c1cc(CN2CCN(C(=O)c3cccc(Cl)c3F)CC2)nc(Nc2nccs2)c1` [Example 82, methyl 2-((4-(3-chloro-2-fluorobenzoyl)piperazin-1-yl)methyl)-6-(thiazol-2-ylamino)isonicotinate], the IC50 was 0.51 nM in test [1] and 210 nM in test [2].

Regarding `O=C(c1cccc(Br)c1F)N1CCN(Cc2cncc(Nc3cc[nH]n3)n2)CC1` [Example 49, 6-((4-(3-bromo-2-fluorobenzoyl)piperazin-1-yl)methyl)-N-1H-pyrazol-3-ylpyrazin-2-amine trifluoroacetate], the IC50 in test [1] stood at 1.4 nM; in test [2], 4400 nM.

Consider `Cc1noc(-c2cc(CN3CCN(C(=O)c4cccc(Cl)c4F)CC3)nc(Nc3nccs3)c2)n1` [Example 110, 6-((4-(3-chloro-2-fluorobenzoyl)piperazin-1-yl)methyl)-4-(3-methyl-1,2,4-oxadiazol-5-yl)-N-thiazol-2-ylpyridin-2-amine], for which the IC50 stood at 0.59 nM in test [1] and 750 nM in test [2].

Regarding `O=C(c1cccc(Cl)c1F)N1CCN(Cc2cc(N3CCCC3=O)cc(Nc3nccs3)n2)CC1` [Example 96, 1-(2-((4-(3-chloro-2-fluorobenzoyl)piperazin-1-yl)methyl)-6-(thiazol-2-ylamino)pyridin-4-yl)pyrrolidin-2-one], the IC50 was 0.57 nM in test [1] and 690 nM in test [2].

As to `O=C(c1ccnc(F)c1)N1CCN(Cc2cccc(Nc3ncc(Br)s3)n2)CC1` [Example 79, 6-((4-(2-fluoroisonicotinoyl)piperazin-1-yl)methyl)-N-(5-bromothiazol-2-yl)pyridin-2-amine], the IC50 in test [1] was found to be 26 nM; in test [2], 2200 nM.

Regarding `CNC(=O)c1cc(CN2CCN(C(=O)c3cccc(Cl)c3F)CC2)nc(Nc2nccs2)c1` [Example 85, 2-((4-(3-chloro-2-fluorobenzoyl)piperazin-1-yl)methyl)-N-methyl-6-(thiazol-2-ylamino)isonicotinamide trifluoroacetate], the IC50 in test [1] is 1 nM; in test [2], 610 nM.

For the compound `O=C(c1cccc(Br)c1F)N1CCN(Cc2cccc(Nc3nccs3)n2)CC1` [Example 12, 6-((4-(3-bromo-2-fluorobenzoyl)piperazin-1-yl)methyl)-N-thiazol-2-ylpyridin-2-amine trifluioroacetate], the results for the IC50 in test [1] and in test [2] were 0.52 nM and 400 nM, respectively.

In the case of `O=C(c1cnccn1)N1CCN(Cc2cccc(Nc3ncc(Cl)s3)n2)CC1` [Example 64, 6-((4-(pyrazin-2-ylcarbonyl)piperazin-1-yl)methyl)-N-(5-chlorothiazol-2-yl)pyridin-2-amine], the IC50 stood at 110 nM in test [1] and 2500 nM in test [2].

For the compound `O=C(c1cccc(Cl)c1F)N1C[C@@H]2C[C@H]1CN2Cc1cccc(Nc2cc[nH]n2)n1` [Example 23, 6-(((1 S,4S)-5-(3-chloro-2-fluorobenzoyl)-2,5-diazabicyclo[2.2.1]hept-2-yl)methyl)-N-1H-pyrazol-3-ylpyridin-2-amine], the IC50 worked out at 3.6 nM in test [1] and 1200 nM in test [2].

`O=C(c1cccc(Br)c1F)N1CCN(Cc2cccc(Nc3cc[nH]n3)n2)CC1` [Example 20, 6-((4-(3-bromo-2-fluorobenzoyl)piperazin-1-yl)methyl)-N-1H-pyrazol-3-ylpyridin-2-amine trifluoroacetate]: the IC50 turned out to be 1.1 nM in test [1] and 1800 nM in test [2].
